Data from ChEMBL document CHEMBL1201862, “PubChem BioAssay data set” (2004).
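How tested: cells in 96-well plates exposed to compound for 48 hours at five concentrations. GI50: concentration for 50% inhibition of growth.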 Calls of active or inactive are those of the source. No stated cut-off is given here; in the data, active = GI50 up to about 1.1 µM and inactive = higher.

Assays:
Assay in all cases: growth of human tumour cells (NCI), 48 h
[1] = tested on: SF-295
[2] = tested on: T47D
[3] = tested on: EKVX
[4] = tested on: CAKI-1
[5] = tested on: CCRF-CEM
[6] = tested on: MOLT-4
[7] = tested on: UO-31
[8] = tested on: M14
[9] = tested on: LOX IMVI
[10] = tested on: HCT-15
[11] = tested on: U-251
[12] = tested on: TK-10
[13] = tested on: ACHN
[14] = tested on: PC-3
[15] = tested on: HT-29
[16] = tested on: SK-MEL-28
[17] = tested on: UACC-257
[18] = tested on: SNB-19
[19] = tested on: DLD-1
[20] = tested on: KM-20L2

SMILES | GI50 [1] | GI50 [2] | GI50 [3] | GI50 [4] | GI50 [5] | GI50 [6] | GI50 [7] | GI50 [8] | GI50 [9] | GI50 [10] [µM] | GI50 [11] | GI50 [12] | GI50 [13] | GI50 [14] | GI50 [15] | GI50 [16] | GI50 [17] | GI50 [18] | GI50 [19] | GI50 [20]
CCCCN(CCCC)c1ccc(/N=N/c2ccc(S(=O)(=O)O)cc2)cc1 | 40.9 µM (inactive) | 25.5 µM (inactive) | 39.1 µM (inactive) | 20.2 µM (inactive) | 18.4 µM (inactive) | 17.7 µM (inactive) | 72.3 µM (inactive) | > 100 µM (inactive) | 18.9 µM (inactive) | 17.2 | 32.3 µM (inactive) | 67.8 µM (inactive) | 46.7 µM (inactive) | 25.8 µM (inactive) | 26.4 µM (inactive) | 81.3 µM (inactive) | 94.4 µM (inactive) | 75.9 µM (inactive) |  | 
CCCCOC(=O)CNC(=O)OCCCCC#CC#CCCCCOC(=O)NCC(=O)OCCCC | > 100 µM (inactive) |  | > 100 µM (inactive) | > 100 µM (inactive) | > 100 µM (inactive) | > 100 µM (inactive) | > 100 µM (inactive) | > 100 µM (inactive) | > 100 µM (inactive) |  | > 100 µM (inactive) | > 100 µM (inactive) | > 100 µM (inactive) |  | > 100 µM (inactive) |  | > 100 µM (inactive) | > 100 µM (inactive) | > 100 µM (inactive) | > 100 µM (inactive)
N#C/C(=C\c1ccccc1)C(NO)Nc1ccccc1 (configuration not stated) | > 100 µM (inactive) |  | > 100 µM (inactive) | 86.5 µM (inactive) | 31.7 µM (inactive) | 31.9 µM (inactive) | 68.7 µM (inactive) | > 100 µM (inactive) |  | 79.8 | 30.3 µM (inactive) | > 100 µM (inactive) | 72.9 µM (inactive) |  | 72.9 µM (inactive) | > 100 µM (inactive) | > 100 µM (inactive) | 60.4 µM (inactive) | > 100 µM (inactive) | > 100 µM (inactive)
O=C(Nc1nccs1)c1cc(C2=CC=CC([N+](=O)[O-])C=C2)nc(S)n1 (configuration not stated) | > 100 µM (inactive) |  | > 100 µM (inactive) | > 100 µM (inactive) | > 100 µM (inactive) | > 100 µM (inactive) | > 100 µM (inactive) | > 100 µM (inactive) | > 100 µM (inactive) | > 100 | > 100 µM (inactive) | > 100 µM (inactive) | > 100 µM (inactive) |  | > 100 µM (inactive) | > 100 µM (inactive) | > 100 µM (inactive) | > 100 µM (inactive) |  | > 100 µM (inactive)
Brc1ccccc1/C=C\C1(c2ccccc2)OCCO1 | 13.4 µM (inactive) | 15.2 µM (inactive) | 15.8 µM (inactive) | 6.59 µM (inactive) | 3.03 µM (inactive) | 0.238 µM (active) | 7.83 µM (inactive) | 11.4 µM (inactive) | 3.34 µM (inactive) | 6.38 | 6.24 µM (inactive) | 16.6 µM (inactive) | 8.51 µM (inactive) | 17.9 µM (inactive) | 7.01 µM (inactive) | 18.8 µM (inactive) | 16.5 µM (inactive) | 15 µM (inactive) |  | 
N=C(N)NCCCC(NC(=O)OCCCCCCn1ccc(N)nc1=O)C(=O)O (configuration not stated) | > 100 µM (inactive) | > 100 µM (inactive) | > 100 µM (inactive) | > 100 µM (inactive) | > 100 µM (inactive) | > 100 µM (inactive) | > 100 µM (inactive) | > 100 µM (inactive) | > 100 µM (inactive) | > 100 | > 100 µM (inactive) | > 100 µM (inactive) | > 100 µM (inactive) | > 100 µM (inactive) | > 100 µM (inactive) | > 100 µM (inactive) | > 100 µM (inactive) | > 100 µM (inactive) |  | 
CC1=CC(C2/C(=N/O)C=C(C)CC2(C)C)C(O)C(C)(C)C1 (configuration not stated) | 18.6 µM (inactive) | 12.8 µM (inactive) | 16.5 µM (inactive) | 15 µM (inactive) | 22.8 µM (inactive) | 13.5 µM (inactive) | 15.6 µM (inactive) | 15.1 µM (inactive) | 16.8 µM (inactive) | 16.3 | 15.7 µM (inactive) | 19.1 µM (inactive) | 18.9 µM (inactive) | 16.1 µM (inactive) | 14.3 µM (inactive) | 15.7 µM (inactive) | 15.5 µM (inactive) | 15.8 µM (inactive) |  | 
O=C(Nc1ccc(Cl)c(Cl)c1)C(=O)C(C(=O)c1ccccc1-c1ccccc1)C1OC(=O)c2ccccc21 (configuration not stated) | 17.1 µM (inactive) |  | 20.8 µM (inactive) |  | 12.1 µM (inactive) | 14 µM (inactive) | 15.6 µM (inactive) | 14.7 µM (inactive) | 13.5 µM (inactive) |  | 9.1 µM (inactive) | 23.6 µM (inactive) | 31.3 µM (inactive) |  | 29.8 µM (inactive) | > 100 µM (inactive) | 18.9 µM (inactive) |  | 14.8 µM (inactive) | 22.9 µM (inactive)
C#Cc1cc(CN(CC(=O)OC(C)(C)C)CC(=O)OC(C)(C)C)nc(CN(CC(=O)OC(C)(C)C)CC(=O)OC(C)(C)C)c1 | 4.39 µM (inactive) |  | 11.9 µM (inactive) | 10 µM (inactive) | 2.96 µM (inactive) | 2.62 µM (inactive) | 3.71 µM (inactive) | 5.89 µM (inactive) | 2.37 µM (inactive) | 24.6 | 5.07 µM (inactive) | 17.3 µM (inactive) | 4.84 µM (inactive) |  | 4.4 µM (inactive) | 7.5 µM (inactive) | 2.82 µM (inactive) | 2.74 µM (inactive) |  | 5.43 µM (inactive)
Cc1cc(C)nc(NS(=O)(=O)c2ccc(Nc3c4ccccc4nc4c(C(=O)Nc5ccc(S(=O)(=O)N=C(N)N)cc5)ccc(Cl)c34)cc2)n1 | 47.2 µM (inactive) |  | 56.4 µM (inactive) | 36.1 µM (inactive) |  | 23.5 µM (inactive) | 25.4 µM (inactive) | 88.5 µM (inactive) | 19.4 µM (inactive) |  | 18.2 µM (inactive) | 34.6 µM (inactive) | 43.5 µM (inactive) |  | 36.3 µM (inactive) | > 10 µM (inactive) | 64.3 µM (inactive) | 20.4 µM (inactive) | 33.1 µM (inactive) | 35.6 µM (inactive)
Cc1cc2c(c3c1c1ccccc1n3C)C(=O)c1ccccc1C2=O | > 100 µM (inactive) |  | > 100 µM (inactive) |  | > 100 µM (inactive) | 53.6 µM (inactive) | > 100 µM (inactive) | > 100 µM (inactive) | > 100 µM (inactive) | > 100 | > 100 µM (inactive) | > 100 µM (inactive) | > 100 µM (inactive) |  | > 100 µM (inactive) | > 100 µM (inactive) | > 100 µM (inactive) | > 100 µM (inactive) | > 100 µM (inactive) | > 100 µM (inactive)
Cc1ccc(NC(=O)C2C(=O)C(=O)N(c3ccc(C)cc3)C2=O)cc1 (configuration not stated) | > 100 µM (inactive) |  | > 100 µM (inactive) |  | > 100 µM (inactive) | > 100 µM (inactive) | > 100 µM (inactive) | > 100 µM (inactive) |  | > 100 | 99.3 µM (inactive) | > 100 µM (inactive) | > 100 µM (inactive) |  | > 100 µM (inactive) | > 10 µM (inactive) | > 100 µM (inactive) | > 100 µM (inactive) | > 100 µM (inactive) | > 100 µM (inactive)
CCOc1cc(C(=O)O)c2c(ccc3ccc(OC)c(OC)c32)c1OC | > 100 µM (inactive) | > 100 µM (inactive) | > 100 µM (inactive) | > 100 µM (inactive) | > 100 µM (inactive) | > 100 µM (inactive) | > 100 µM (inactive) | > 100 µM (inactive) | > 100 µM (inactive) | > 100 | > 100 µM (inactive) | > 100 µM (inactive) | > 100 µM (inactive) | > 100 µM (inactive) | > 100 µM (inactive) | > 100 µM (inactive) | > 100 µM (inactive) | > 100 µM (inactive) |  | 
COC(=O)C(CCC1(C)OCCO1)C(C)=O (configuration not stated) | > 100 µM (inactive) |  | > 100 µM (inactive) |  | > 100 µM (inactive) | > 100 µM (inactive) | > 100 µM (inactive) | > 100 µM (inactive) | > 100 µM (inactive) | > 100 | > 100 µM (inactive) | > 100 µM (inactive) | > 100 µM (inactive) |  | > 100 µM (inactive) | > 100 µM (inactive) | > 100 µM (inactive) | > 100 µM (inactive) | > 100 µM (inactive) | > 100 µM (inactive)
CCCCCCCCCCCCCS(=O)(=O)O | > 100 µM (inactive) |  | > 100 µM (inactive) |  | > 100 µM (inactive) |  | > 100 µM (inactive) | > 100 µM (inactive) | > 100 µM (inactive) | > 100 | > 100 µM (inactive) | > 100 µM (inactive) | > 100 µM (inactive) |  | > 100 µM (inactive) | > 100 µM (inactive) | > 100 µM (inactive) | > 100 µM (inactive) | > 100 µM (inactive) | > 100 µM (inactive)
c1ccc2c(c1)Sc1ccccc1N2CC1CN2CCC1CC2 (configuration not stated) [MEQUITAZINE] | 15.7 µM (inactive) | 2.63 µM (inactive) | 11.4 µM (inactive) | 8.26 µM (inactive) | 3.28 µM (inactive) | 3.42 µM (inactive) | 7.06 µM (inactive) | 1.87 µM (inactive) | 3.08 µM (inactive) | 7.18 | 4.24 µM (inactive) | 6.41 µM (inactive) | 10.3 µM (inactive) | 5.35 µM (inactive) | 3.01 µM (inactive) | 2 µM (inactive) | 1.88 µM (inactive) | 9.23 µM (inactive) |  | 
